Measured values reported in US20240139178A1, “METHOD FOR MANUFACTURING COMPOSITION FOR COMPOSITION FOR INCREASING COGNITIVE FUNCTION” (priority 2018, published 2024).

Experiments:
Aβ1-42 [1] = molecular target: T1, Aβ1-42 (Homo sapiens, UniProt P05067); assay: Aβ aggregation inhibition test (Thioflavin T analysis); assay type: biochemical; details: for Aβ aggregation degree compared to the control / amyloid aggregation inhibition effect compared to the control: 2 μM compound, Aβ1-42 50 μM; for Aβ aggregation degree compared to the control: 37° C. 72 hours, control = 100%; for amyloid aggregation inhibition effect compared to the control: 72 hours; for Aggregation (%): 20 μM compound, 50 μM Aβ, 3 days, relative to control (100%)
T1 construct: human A81-42 monomers (UniProtKB-P05067, a.a. 672-713)
T1 sequence (P05067 672-713): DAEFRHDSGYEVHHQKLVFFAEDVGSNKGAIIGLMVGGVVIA
Description: Then, the compound was used diluted by using 6% DMSO (in DW) and used.
Triflupromazine hydrochloride (triflupromazine used in all the examples below is triflupromazine hydrochloride) was dissolved to a concentration of 5 mM in DMSO. The compound was then used diluted with 6% DMSO (in DW).
The Aβ solution was prepared by dissolving human A81-42 monomers (UniProtKB-P05067, a.a. 672-713) to 10 mM concentration in DMSO. Thereafter, the mixture was diluted to 100 uM by using DW and stored on ice.
On the other hand, Thioflavin-T (Sigma-Aldrich) was dissolved to the concentration of 5 mM in 50 mM glycine buffer (pH 8.5). Then, the resultant solution was diluted to the concentration of 50 μM by using 50 mM glycine buffer (pH 8.5) and stored in the dark while light was blocked.
(§1) 25 μL of the reaction solution in which the reaction was completed was added to each well of a 96-well fluorescence assay plate, and 75 μL of the Thioflavin-T solution prepared above was added to each well. After reacting for 5 minutes in the dark at room temperature, fluorescence values were measured at excitation 450 nm and emission 485 nm by using a multi-mode microplate reader.
The fluorescence value of the group (control) treated with Aβ alone and aggregated for 72 hours was considered as 100%, and the measured fluorescence values were expressed as a relative value thereto, and results thereof are shown in FIG. 1 and FIG. 2.
In addition, by performing the same test as described above for 20 μM of various compounds using 50 μM Aβ, the degree of Aβ aggregation was measured, and the result is expressed as a relative value for control (100%).

Aβ1-42 [2] = molecular target: T1, Aβ1-42; assay: Aβ disaggregation test by Thioflavin T analysis; assay type: biochemical; details: for amyloid disaggregation effect: Aβ1-42 25 μM; for degree of Aβ aggregation compared to the control: Aβ1-42 25 μM pre-aggregated 72 hours, then 72 hours
Description: (§2) The compound was then used diluted with 6% DMSO (in DW).
Triflupromazine hydrochloride was dissolved to the concentration of 5 mM in DMSO. The compound was then used diluted with 6% DMSO (in DW).
(§3) The Aβ solution was prepared by dissolving Aβ 1-42 monomers to the concentration of 10 mM in DMSO. Thereafter, the mixture was diluted to 100 μM by using DW and stored on ice.
(§4) On the other hand, Thioflavin-T was dissolved to the concentration of 5 mM in 50 mM glycine buffer (pH 8.5). Then, the resultant solution was diluted to the concentration of 50 μM by using 50 mM glycine buffer (pH 8.5) and stored in the dark while light was blocked.
The Aβ solution prepared in Example 2.1. was placed in 1.5 mL microcentrifuge tubes, each having 25 μM of the Aβ solution, and then reacted at 37° C. for 72 hours.
as §1
The fluorescence value of the group (control) treated with Aβ alone and aggregated for 72 hours was considered as 100%, and the measured fluorescence values were expressed as a relative value thereto, and results thereof are shown in FIG. 3 and FIG. 4.

Aβ42 = molecular target: T2, Aβ42 (Homo sapiens, UniProt P05067); assay: Aβ disaggregation test by SDS-PAGE analysis (PICUP); assay type: biochemical; details: 25 μM Aβ aggregated 3 days, 50 μM or 500 μM compound, further 3 days
T2 construct: human A81-42 monomers (UniProtKB-P05067, a.a. 672-713)
T2 sequence (P05067 672-713): as above
Description: In order to confirm Aβ disaggregation in the sample prepared in Example 2.1, SDS-PAGE analysis was performed as follows.
In detail, the stock of ammonium persulfate (APS; 200 mM)and tris (2,2′-bipyridyl)dichlororuthenium (II) hexahydrate (Ru; 10 mM) was prepared in an amber tube (Axygen, MCT-150-X) by using a photo-induced cross-linking of unmodified proteins (PICUP) buffer (0.1 M sodium phosphate (pH 7.4)). The stock was diluted 10-fold in PICUP buffer (APS: 20 mM/Ru: 1 mM). 10 μL of each sample prepared in Example 2.1 was dispensed at the bottom of a 0.5 mL tube (Axygen, PCR-05-C). 1 μL of APS (20 mM) was dispensed on the tube wall and 1 μL of Ru (1 mM) on the tube cap. At this time, in order to prevent the reaction from proceeding, the sample was not mixed with APS and Ru. After closing the tube cap and spin down using a centrifuge, the tube was removed from the centrifuge and exposed to light 3 times per second using an incandescent lamp. 3 μL of 5× reducing sample buffer (w/5% β-mercaptoethanol) was added to each tube. Samples were heated at 95-100° C. for 5 minutes and then cooled on ice.
Then, the PICUP-treated samples were loaded on 4-20% (w/v) tris/glycine gel and electrophoresed at 100V for 1 hour and 30 minutes. After electrophoresis, the gel was separated and confirmed by silver staining.

5× FAD mice = assay: Amyloid plaque reduction by oral triflupromazine, Thioflavin S staining; assay type: in vivo; details: oral 50 mg/kg once every two days for 3 weeks; vs vehicle control mice
Description: (§5) Transgenic mice (5×FAD; Alzheimer's disease animal model; B6SJL-Tg (APPSwFILon, PSEN1*M146L*L286V)6799Vas/Mmjax)) and wild-type mice were obtained from Jackson Laboratory (Bar Harbor, Maine, USA). 5× FAD mice crossed with wild-type mice and maintained as double hemizygotes. All genotypes were confirmed by PCR analysis using tail DNA according to the standard PCR conditions of the Jackson Laboratory. Four to six mice were housed in a plastic cage in the animal cage and the temperature of the plastic cage was maintained at 21±1° C. in alternating 12 hour light cycle, and the mice were freely fed with food and water.
(§6) Seven-month old 5× FAD mice were orally treated with 50 mg/kg of triflupromazine once every two days for 3 weeks. The control received the same amount of vehicle (1% (w/v) DMSO in PBS).
Mice were anesthetized using 2%(w/v) avertin (20 mg/g, i.p.). The mice were perfused with 0.9%(w/v) NaCl and brains thereof were excised. […] The lysate concentration was measured using the BCA protein assay kit (thermoFisher, cat #232250) according to the manufacturer's instructions. The absorbance was read at 560 nm.
To stain frozen brain with thioflavin S (ThS), the brain was cut to 35 um thickness to create tissue sections using cryostat (Leica CM1800) and then Aβ plaques were stained. […] Images were obtained using a Leica DM2500 fluorescence microscope.

[3] = tested on: Total Tau (T-Tau) and phosphorylated Tau (P-Tau); assay: Western blot of total and phosphorylated Tau in brain tissue after oral triflupromazine; assay type: in vivo, mice
Description: as §5, §6
Mice were anesthetized using 2%(w/v) avertin (20 mg/g, i.p.). The mice were perfused with 0.9%(w/v) NaCl and brains thereof were excised. The hemibrains were fixed overnight at 4° C. in 4° /0(w/v) paraformaldehyde (pH 7.4). For cryopreservation, brains were soaked in 30%(w/v) sucrose for 48 hours. The other hemibrains were dissected into cortical and hippocampal regions and homogenized on ice for 30 minutes in lysis buffer (10 mM Tris-HCl, 5 mM EDTA in 320 mM sucrose, pH 7.4) containing 1× protease inhibitor cocktail. The sample was centrifuged at 13500 rpm for 30 minutes at 4° C. The lysate concentration was measured using the BCA protein assay kit (thermoFisher, cat #232250) according to the manufacturer's instructions. The absorbance was read at 560 nm.
Changes in Tau, a major cause of Alzheimer's dementia and Parkinson's disease, together with Aβ plaques, were confirmed by Western blot analysis. Samples of the prepared tissues were separated by SDS-PAGE and transferred to PVDF membrane. The membrane was treated overnight at 4° C. using the primary antibody. As the primary antibody, antibodies capable of detecting Total Tau (T-Tau) and phosphorylated Tau (P-Tau) were used, and detection was performed using a secondary antibody conjugated with horseradical peroxidase (HRP). The blot development was performed with a Clarity Western ECL substrate (Bio-Rad) according to the manufacturer's instructions.
On the other hand, in wild type mice (Wt), a decrease in total Tau (T-Tau) and phosphorylated Tau (P-Tau) was not observed.

Aβ1-42 [4] = molecular target: T1, Aβ1-42; assay: Aβ disaggregation test of rifamycin-based derivatives by Thioflavin T analysis; assay type: biochemical; details: 50 μM compound, 50 μM Aβ1-42 aggregated 3 days, then 2 days of reaction
Description: as §2, §3, §4
The Aβ solution prepared in Example 3.1. was placed in 1.5 mL microcentrifuge tubes, each having 50 μM of the Aβ solution, and then reacted at 37° C. for 72 hours.
Each 1.5 mL microcentrifuge tube was treated with 50 μM rifapentine-based derivatives, followed by reaction at 37° C. for 48 hours.
as §1
The fluorescence value of the group (control) treated with Aβ alone and aggregated for 72 hours by treating only Aβ was considered as 100%, and the measured fluorescence values were expressed as a relative value thereto, and results thereof are shown in FIG. 7.

APP/PS1 TG mice = assay: Y-maze test; assay type: in vivo; details: 8th week after oral administration; compared to TG-Veh and WT-Veh
Description: Transgenic mice (APP/PS1 TG; Alzheimer' disease animal model; B6C3-Tg(APPswe, PSEN1dE)85Dbo/Mmjax) and wild type mice were derived from Jackson Laboratory (Bar Harbor, Maine, USA). APP/PS1 TG mice crossed with wild-type mice and maintained as double hemizygotes. All genotypes were confirmed by PCR analysis using tail DNA according to the standard PCR conditions of the Jackson Laboratory. Each mouse was housed in a plastic cage in the animal cage and the temperature of the plastic cage was maintained at 21±1° C. in alternating 12 hour light cycle, and the mice were freely fed with food and water.
The control group received the same amount of vehicle (0.5% MC in DW).
Y-maze test was performed using a maze structure made by placing the same three arms 40 cm in length (15 cm in height of the wall) at an angle of 120 degrees. […] The search time was 8 minutes per subject, and the final result was expressed as a spontaneous alteration (%) value. Spontaneous alteration (%) value was calculated by the following formula. […]
Behavioral patterns were analyzed using SMART VIDEO TRACKING Software (Panlab, USA). All data obtained in the experiments were expressed as mean±standard error mean (SEM), and the drug-applied group was compared with the non-drug group, which was a control, by using student's t-test.

[5] = 5× FAD (Tg) mice, cortex and hippocampus tissue, oral 50 mg/kg once every two days for 3 weeks, vs Tg veh

Aβ disaggregation effect compared to the control (Aβ1-42 [4]) [%] | degree of Aβ aggregation compared to the control (Aβ1-42 [4]) [%] | Structure (SMILES) | Aβ aggregation degree compared to the control (Aβ1-42 [1]) [%] | amyloid aggregation inhibition effect compared to the control (Aβ1-42 [1]) [%] | Aggregation (%) (Aβ1-42 [1]) | amyloid disaggregation effect (Aβ1-42 [2]; 50 μM compound) [%] | degree of Aβ aggregation compared to the control (Aβ1-42 [2]; 50 μM compound) [%] | amyloid disaggregation effect (Aβ1-42 [2]; 500 μM compound) [%] | degree of Aβ aggregation compared to the control (Aβ1-42 [2]; 500 μM compound) [%] | Aβ disaggregation (bands of aggregated Aβ fibrils and dimers) (Aβ42) | number of plaques (5× FAD mice) | total areas of plaques (5× FAD mice) | P-Tau (phosphorylated Tau) [3, 5] | T-Tau (Total Tau) [3, 5] | decrease in phosphorylated Tau (P-Tau) ([3]; wild type mice (Wt)) | decrease in total Tau (T-Tau) ([3]; wild type mice (Wt)) | spontaneous alteration (%) (APP/PS1 TG mice)
– | – | CN(C)CCCN1c2ccccc2Sc2ccc(C(F)(F)F)cc21 [triflupromazine, dimethyl ({3-[2-(trifluoromethyl)-10H-phenothiazin-10-yl]propyl})amine] | ≤ 70 | ≥ 30 | 49.84 | ≥ 35 | ≤ 65 | ≥ 75 | ≤ 25 | concentration-dependent Aβ disaggregation activity | reduced | reduced | decreased | decreased | not observed | not observed | –
≥ 90 | ≤ 10 | CO[C@H]1/C=C/O[C@@]2(C)Oc3c(C)c(O)c4c(O)c(c(/C=N/N5CCN(C6CCCC6)CC5)c(O)c4c3C2=O)NC(=O)/C(C)=C\C=C\[C@H](C)[C@H](O)[C@@H](C)[C@@H](O)[C@@H](C)[C@H](OC(C)=O)[C@@H]1C [rifapentine, 3-[[(4-cyclopentyl-1-piperazinyl)imino]methyl]-rifamycin] | ≤ 40 | ≥ 60 | 13.35 | ≥ 90 | ≤ 10 | ≥ 99 | ≤ 1 | concentration-dependent Aβ disaggregation activity | – | – | – | – | – | – | increased closer to the positive control group (WT-Veh)
